{"source": "BindingDB's records for patent US20240132480", "about": "(Cornell University, 2024)", "biological_target": "T1, Dihydrolipoyl dehydrogenase (Mycobacterium tuberculosis (strain ATCC 25618 / H37Rv), UniProt P9WHH9)", "T1 sequence (P9WHH9 whole entry)": "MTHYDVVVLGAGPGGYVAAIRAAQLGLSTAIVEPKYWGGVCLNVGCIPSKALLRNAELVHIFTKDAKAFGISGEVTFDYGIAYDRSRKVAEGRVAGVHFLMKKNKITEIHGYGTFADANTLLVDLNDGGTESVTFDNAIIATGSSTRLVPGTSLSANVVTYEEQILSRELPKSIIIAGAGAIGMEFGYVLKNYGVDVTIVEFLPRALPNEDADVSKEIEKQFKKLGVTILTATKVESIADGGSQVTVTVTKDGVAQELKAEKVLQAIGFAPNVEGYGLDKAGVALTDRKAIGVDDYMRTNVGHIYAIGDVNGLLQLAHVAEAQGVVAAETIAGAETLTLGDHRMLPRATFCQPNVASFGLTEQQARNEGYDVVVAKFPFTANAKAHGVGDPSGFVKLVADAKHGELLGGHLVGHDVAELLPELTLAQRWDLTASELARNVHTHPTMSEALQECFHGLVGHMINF", "assay": "LPD Assay with 30 min preincubation", "data": [{"smiles": "CC#CCNC(=O)CN(C)S(=O)(=O)c1cc(C)cc2cc(C#N)[nH]c12", "note": "[US20240132480, Example 210]", "values": [{"measurement": "IC50", "value": 38, "unit": "nM"}]}]}
